These results are taken from the supplement of paper PMC6045584.

Compound in assay [1]: COc1ccc(-c2cc3c(C)nc(N)nc3n([C@H]3CC[C@H](OCCO)CC3)c2=O)cn1
In words: surviving fraction relative to DMSO-only wells; higher = less growth inhibition. The settings on record: exposure time: 5 days. The procedure, abridged:
(§1)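 Viability was determined by CellTiter-Glo luminescence, expressed as surviving fraction normalised to the median of DMSO-only wells. The cells were log-phase tumour cell lines seeded at 250–500 per well in 384-well plates and, after 24 hours, exposed continuously for five days to inhibitors at 0.5, 1, 5, 10, 50, 100, 500 and 1000 nM. Three screens per line were run, keeping only lines with replicate Pearson r >0.7 and median Z' >0.3.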

Compound in the next assay: COc1cc2nccc(Oc3ccc(NC(=O)C4(C(=O)Nc5ccc(F)cc5)CC4)cc3)c2cc1OC [CABOZANTINIB]
Described as above. The settings on record: exposure time: 5 days. The procedure, abridged:
as §1

± gives the standard deviation of the averaged measurements.

As for HCC70 BREAST, the surviving fraction in assay [1] (0.5 nM) was determined as 1.01 ± 0.091; in assay [1] (1 nM) it was 1.02 ± 0.092; in assay [1] (5 nM), 1.06 ± 0.097; in assay [1] (10 nM), 0.98 ± 0.026; in assay [1] (50 nM), 0.623 ± 0.051; in assay [1] (100 nM), 0.346 ± 0.011. The surviving fraction amounted to 0.111 ± 0.036 in assay [1] (500 nM); 0.056 ± 0.0061 in assay [1] (1000 nM); 0.985 ± 0.1 in the assay with CABOZANTINIB (0.5 nM); 1.03 ± 0.048 in the assay with CABOZANTINIB (1 nM); 1.07 ± 0.11 with CABOZANTINIB (5 nM); 1.09 ± 0.065 in the assay with CABOZANTINIB (10 nM). Also, the surviving fraction in the assay with CABOZANTINIB (50 nM) stood at 1.04 ± 0.14; in the assay with CABOZANTINIB (100 nM), 1.12 ± 0.045; in the assay with CABOZANTINIB (500 nM), 1.09 ± 0.091; in the assay with CABOZANTINIB (1000 nM) it was 0.99 ± 0.051.
G292 BONE: the surviving fraction turned out to be 0.951 ± 0.026 in assay [1] (0.5 nM); 0.971 ± 0.037 in assay [1] (1 nM); 0.853 ± 0.042 in assay [1] (5 nM); 0.78 ± 0.011 in assay [1] (10 nM); 0.422 ± 0.027 in assay [1] (50 nM); 0.305 ± 0.013 in assay [1] (100 nM). In addition, the surviving fraction in assay [1] (500 nM) came out at 0.124 ± 0.003; in assay [1] (1000 nM), 0.0955 ± 0.001; with CABOZANTINIB (0.5 nM), 0.911 ± 0.047; in the assay with CABOZANTINIB (1 nM) it was 0.977 ± 0.012; in the assay with CABOZANTINIB (5 nM), 1.02 ± 0.078; in the assay with CABOZANTINIB (10 nM), 1.02 ± 0.046. Besides, the surviving fraction in the assay with CABOZANTINIB (50 nM) stood at 0.925 ± 0.04; with CABOZANTINIB (100 nM), 0.876 ± 0.021; with CABOZANTINIB (500 nM), 0.76 ± 0.035; with CABOZANTINIB (1000 nM), 0.722 ± 0.024.
In the case of HMT3552 BREAST, the surviving fraction in assay [1] (0.5 nM) came out at 0.941; in assay [1] (1 nM), 0.913; in assay [1] (5 nM) it was 0.883; in assay [1] (10 nM), 0.813; in assay [1] (50 nM), 0.535; in assay [1] (100 nM) it was 0.279. Besides, the surviving fraction is 0.09 in assay [1] (500 nM); 0.077 in assay [1] (1000 nM); 1.12 ± 0.044 with CABOZANTINIB (0.5 nM); 1.04 ± 0.012 with CABOZANTINIB (1 nM); 1.02 ± 0.021 with CABOZANTINIB (5 nM); 1.03 ± 0.051 in the assay with CABOZANTINIB (10 nM). Further, the surviving fraction with CABOZANTINIB (50 nM) is 1.21 ± 0.067; in the assay with CABOZANTINIB (100 nM), 1.09 ± 0.085; in the assay with CABOZANTINIB (500 nM) it was 1.01 ± 0.061; with CABOZANTINIB (1000 nM), 0.988 ± 0.057.
CCK81 LARGE INTESTINE: the surviving fraction in the assay with CABOZANTINIB (0.5 nM) is 0.691 ± 0.07; with CABOZANTINIB (1 nM), 0.837 ± 0.062; with CABOZANTINIB (5 nM) it was 0.725 ± 0.12; with CABOZANTINIB (10 nM) it was 0.764 ± 0.019; with CABOZANTINIB (50 nM), 0.704 ± 0.073; with CABOZANTINIB (100 nM), 0.686 ± 0.075. The surviving fraction was found to be 0.718 ± 0.12 in the assay with CABOZANTINIB (500 nM) and 0.743 ± 0.08 in the assay with CABOZANTINIB (1000 nM).
As for HCC38 BREAST, the surviving fraction in assay [1] (0.5 nM) worked out at 0.974 ± 0.14; in assay [1] (1 nM), 1.13 ± 0.17; in assay [1] (5 nM), 1.21 ± 0.02; in assay [1] (10 nM), 1.08 ± 0.069; in assay [1] (50 nM) it was 1.14 ± 0.14; in assay [1] (100 nM), 1.01 ± 0.34. In addition, the surviving fraction in assay [1] (500 nM) turned out to be 0.409 ± 0.083; in assay [1] (1000 nM) it was 0.223 ± 0.046; with CABOZANTINIB (0.5 nM), 1.07 ± 0.1; with CABOZANTINIB (1 nM), 1.14 ± 0.12; with CABOZANTINIB (5 nM), 1.38 ± 0.22; in the assay with CABOZANTINIB (10 nM) it was 1.34 ± 0.23. In addition, the surviving fraction with CABOZANTINIB (50 nM) worked out at 1.13 ± 0.074; in the assay with CABOZANTINIB (100 nM), 1.24 ± 0.067; with CABOZANTINIB (500 nM) it was 1.22 ± 0.1; with CABOZANTINIB (1000 nM), 1.34 ± 0.15.
As for HMLE3 BREAST, the surviving fraction was 0.914 ± 0.04 in assay [1] (0.5 nM); 0.918 ± 0.061 in assay [1] (1 nM); 0.858 ± 0.12 in assay [1] (5 nM); 0.83 ± 0.035 in assay [1] (10 nM); 0.611 ± 0.043 in assay [1] (50 nM); 0.446 ± 0.024 in assay [1] (100 nM). In addition, the surviving fraction in assay [1] (500 nM) was 0.121 ± 0.01; in assay [1] (1000 nM), 0.0777 ± 0.0064; in the assay with CABOZANTINIB (0.5 nM) it was 0.925 ± 0.14; in the assay with CABOZANTINIB (1 nM), 0.91 ± 0.032; with CABOZANTINIB (5 nM) it was 0.98 ± 0.023; with CABOZANTINIB (10 nM) it was 0.942 ± 0.08. Also, the surviving fraction came out at 0.992 ± 0.07 with CABOZANTINIB (50 nM), 0.91 ± 0.064 with CABOZANTINIB (100 nM), 0.72 ± 0.049 in the assay with CABOZANTINIB (500 nM) and 0.656 ± 0.0044 with CABOZANTINIB (1000 nM).
Consider HS578T BREAST, for which the surviving fraction in assay [1] (0.5 nM) is 0.864 ± 0.19; in assay [1] (1 nM), 0.946 ± 0.1; in assay [1] (5 nM) it was 0.811 ± 0.047; in assay [1] (10 nM) it was 0.759 ± 0.12; in assay [1] (50 nM), 0.547 ± 0.048; in assay [1] (100 nM), 0.403 ± 0.028. Also, the surviving fraction worked out at 0.17 ± 0.008 in assay [1] (500 nM); 0.111 ± 0.004 in assay [1] (1000 nM); 0.931 ± 0.14 with CABOZANTINIB (0.5 nM); 0.97 ± 0.1 with CABOZANTINIB (1 nM); 0.786 ± 0.087 with CABOZANTINIB (5 nM); 1.12 ± 0.087 with CABOZANTINIB (10 nM). In addition, the surviving fraction with CABOZANTINIB (50 nM) came out at 1.04 ± 0.08; with CABOZANTINIB (100 nM) it was 1.2 ± 0.049; with CABOZANTINIB (500 nM), 1.06 ± 0.075; in the assay with CABOZANTINIB (1000 nM), 0.998 ± 0.099.
